Reference: US9023789B2, “Amylin analogs and pharmaceutical compositions thereof” (Novo Nordisk A/S, priority 2012, dated 2015)
≈ marks a conversion by molar mass, not a printed value. Read-outs that look alike come from different tables or passages of the source. Numbered stars: 1 amine (or outer) side, 2 acyl side, 3 side chain; on linkers, the order of the positions; unused ones are H or OH. Bridge positions count the residues as written; N and C are the ends. Side chains are listed from the residue outwards. Peptide text beside a SMILES is read from it. * marks the point of attachment. C20 diacid = O=C(O)CCCCCCCCCCCCCCCCCCC(=O)*; γGlu = O=C(O)[C@H](CCC(=O)[*:2])N[*:1]; AEEA = NCCOCCOCC(=O)O

How the values were obtained:
[1] = molecular target: T1, human amylin receptor (membranes from Amylin 3(a)/CRE-luc cells) (Homo sapiens, UniProt O60896+P30988); assay: ASSAY (V) binding to the human amylin receptor (SPA, 125I-rat amylin);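 further: competition binding of cell membranes (35 ng/µL) mixed with SPA beads in 384-well plates at 40 µL total volume, read by scintillation counting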
T1 construct: expressed in transfected cells
T1 sequence (P30988 25-474): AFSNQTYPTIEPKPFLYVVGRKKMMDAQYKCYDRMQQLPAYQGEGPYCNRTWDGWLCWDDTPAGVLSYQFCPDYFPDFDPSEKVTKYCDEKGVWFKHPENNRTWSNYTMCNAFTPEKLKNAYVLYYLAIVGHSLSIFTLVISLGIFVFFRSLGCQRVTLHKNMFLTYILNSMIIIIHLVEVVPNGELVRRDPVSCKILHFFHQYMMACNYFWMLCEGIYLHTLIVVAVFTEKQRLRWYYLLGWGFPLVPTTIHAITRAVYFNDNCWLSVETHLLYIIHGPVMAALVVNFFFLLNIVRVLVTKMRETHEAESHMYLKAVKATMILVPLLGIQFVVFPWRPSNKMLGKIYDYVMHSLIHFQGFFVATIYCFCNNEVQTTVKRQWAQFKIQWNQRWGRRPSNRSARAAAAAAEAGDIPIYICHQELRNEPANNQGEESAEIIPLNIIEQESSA
T1 sequence (O60896 24-148 partner): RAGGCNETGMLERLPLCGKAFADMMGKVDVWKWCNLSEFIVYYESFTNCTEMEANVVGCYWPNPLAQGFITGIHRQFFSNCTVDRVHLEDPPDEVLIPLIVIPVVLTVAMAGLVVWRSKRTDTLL
Procedure: The binding assay was performed using scintillation proximity assay (SPA) beads (RPNQ0001) from PerkinElmer and cell membranes from the Amylin 3(a)/CRE-luc cells (as described in Assay (II)) were used. Membranes were prepared in the following way; the cells were rinsed with PBS and incubated with Versene for approximately 5 min before harvesting. The cells were flushed with PBS and the cell-suspension was centrifuged for 5 min at 1000 rpm. […] The resulting pellet was resuspended in buffer 2 and protein concentration was measured (BCA protein Assay, Pierce). The homogenate was kept cold during the whole procedure. The membranes were kept at −80° C. until use. The assay was performed in a 384 well Optiplate (PerkinElmer) in a total volume of 40 ul. Membranes were mixed with SPA beads. Final concentration of membranes 35 ng/μL final and SPA beads was 0.05 mg/well. Test-compounds were dissolved in DMSO and further diluted in assay buffer (50 mM Hepes, pH 7.4, 1 mM CaCl2, 5 mM MgCl2, 0.1% OA and 0.02% Tween20). […] Samples were analyzed on TopCounter™ (Packard). The IC50 was calculated using (one site binding competition analysis) GraphPad Prism5 as a measure of receptor affinity.

[2] = ASSAY (IV) determination of solubility; assay type: physicochemical
How it was run: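 Dissolve polypeptide in water ([…] stock); combine 1:1 with each 100 mM buffer (glycylglycine pH 3.0/4.0/5.0; bistrispropane pH 6.0/6.5/7.0/7.5/8.0); hold 18 hours at room temperature; centrifuge; quantify polypeptide by UPLC.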

[3] = molecular target: T2, human amylin 3(a) receptor (human calcitonin receptor + RAMP-3) in BHK570 cells (Homo sapiens, UniProt O60896+P30988); assay: ASSAY (II)a functional assay, human amylin receptor (CRE luciferase); assay type: cell-based
T2 construct: expressed in transfected cells
How it was run: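 BHK cells stably carrying a CRE-luciferase reporter plus calcitonin receptor, or calcitonin receptor with RAMP-3 for the amylin 3(a) receptor, were seeded and kept overnight at 37° C. Compounds were added in assay medium with 10% FBS and 10 mM Hepes, pH 7.4, for 3 hours at 37° C, then luminescence was counted.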

[4] = Table 5, selectivity, hCTR bind IC50 / hAmylin-R bind IC50
[5] = Table 5a, selectivity, hCTR bind IC50 / hAmylin-R bind IC50
[6] = Table 5b, selectivity, hCTR bind IC50 / hAmylin-R bind IC50
[7] = Table 5c, selectivity, hCTR bind IC50 / hAmylin-R bind IC50
[8] = Table 7, human binding selectivity, included for comparison
[9] = Table 7a (preferred compounds), human binding selectivity, included for comparison
[10] = ratio of human calcitonin receptor binding IC50 to human amylin receptor binding IC50
[11] = bistrispropane buffer, pH 6.5, read-out: Solubility pH 6.5 Concentration
[12] = bistrispropane buffer, pH 7.5, read-out: Solubility pH 7.5 Concentration
[13] = bistrispropane buffer, pH 6.0, read-out: Solubility pH 6.0 Concentration
[14] = bistrispropane buffer, pH 7.0, read-out: Solubility pH 7.0 Concentration
[15] = bistrispropane buffer, pH 8.0, read-out: Solubility pH 8.0 Concentration
[16] = glycylglycine buffer, pH 3.0, read-out: Solubility pH 3.0 Concentration
[17] = glycylglycine buffer, pH 4.0, read-out: Solubility pH 4.0 Concentration
[18] = hCTR funct. EC50 divided by hAmylin-R funct. EC50
[19] = hCTR funct. EC50 over hAmylin-R funct. EC50
[20] = human functional selectivity: hCTR funct. EC50 / hAmylin-R funct. EC50
[21] = glycylglycine buffer, pH 5.0, read-out: Solubility pH 5.0 Concentration

| SMILES | Ratio hCT/hAmylin binding [1, 4] | Ratio hCT/hAmylin binding [1, 5] | Ratio hCT/hAmylin binding [1, 6] | Ratio hCT/hAmylin binding [1, 7] | Ratio hCT/hAmylin binding [1, 8] | Ratio hCT/hAmylin binding [1, 9] | Ratio hCT/hAmylin binding [1, 10] | solubility at 18 h [2, 11] [µM] | solubility at 18 h [2, 12] [µM] | solubility at 18 h [2, 13] [µM] | solubility at 18 h [2, 14] [µM] | solubility at 18 h [2, 15] [µM] | solubility at 18 h [2, 16] [µM] | solubility at 18 h [2, 17] [µM] | Ratio hCT/hAmylin funct. [3, 18] | Ratio hCT/hAmylin funct. [3, 19] | Ratio hCT/hAmylin funct. [3, 20] | solubility at 18 h [2, 21] [µM] | further results |
| --- | --- | --- | --- | --- | --- | --- | --- | --- | --- | --- | --- | --- | --- | --- | --- | --- | --- | --- | --- |
| CC[C@H](C)[C@H](NC(=O)[C@H](C)NC(=O)CNC(=O)[C@H](Cc1ccccc1)NC(=O)[C@H](CC(N)=O)NC(=O)[C@@H]1CCCN1C(=O)[C@H](CO)NC(=O)[C@H](CO)NC(=O)[C@H](Cc1c[nH]cn1)NC(=O)[C@H](CCCNC(=N)N)NC(=O)[C@H](CC(C)C)NC(=O)[C@H](Cc1ccccc1)NC(=O)[C@H](Cc1c[nH]cn1)NC(=O)[C@H](C)NC(=O)[C@H](CC(C)C)NC(=O)[C@H](CCCNC(=N)N)NC(=O)[C@H](CCC(N)=O)NC(=O)[C@@H](NC(=O)[C@H](C)NC(=O)[C@@H]1CSSC[C@H](NC(=O)[C@H](CCCNC(=N)N)NC(=O)CNC(=O)CC[C@H](NC(=O)CCCCCCCCCCCCCCCCCCC(=O)O)C(=O)O)C(=O)N[C@@H](CC(N)=O)C(=O)N[C@@H]([C@@H](C)O)C(=O)N[C@@H](C)C(=O)N[C@@H]([C@@H](C)O)C(=O)N1)[C@@H](C)O)C(=O)N1CCC[C@H]1C(=O)N[C@@H](CO)C(=O)N[C@@H](CO)C(=O)N[C@H](C(=O)N[C@@H](CC(N)=O)C(=O)N[C@H](C(=O)NCC(=O)N[C@@H](Cc1c[nH]cn1)C(=O)N[C@@H](CC(N)=O)C(=O)N[C@H](C(=O)N[C@@H](Cc1ccc(O)cc1)C(N)=O)[C@@H](C)O)C(C)C)[C@@H](C)O [Example 100] ({C20 diacid-γGlu}-GRCNTATCATQRLAHFLRHSSPNFGAIPSSTNVGHNTY-NH2; disulfide 3-8 (inferred)) | 65.3 | 65.3 | 65.3 | 65.3 | 65.3 | 65.3 | 65.3 | ≥ 200 | 26 (≈ 118 µg/mL) | ≥ 200 | 109 (≈ 495 µg/mL) | 31 (≈ 141 µg/mL) | ≥ 200 | ≥ 200 | 6.8 | 6.8 | 6.8 | – | Solubility pH 6.5 Concentration ([2]; pH 6.5 (Table 9a)): ≧200 μM |
| CC[C@H](C)[C@H](NC(=O)[C@H](C)NC(=O)CNC(=O)[C@H](Cc1ccccc1)NC(=O)[C@H](CC(N)=O)NC(=O)[C@@H]1CCCN1C(=O)[C@H](CO)NC(=O)[C@H](CO)NC(=O)[C@H](Cc1c[nH]cn1)NC(=O)[C@H](CCCNC(=N)N)NC(=O)[C@H](CC(C)C)NC(=O)[C@H](Cc1ccccc1)NC(=O)[C@H](CC(N)=O)NC(=O)[C@H](C)NC(=O)[C@H](CC(C)C)NC(=O)[C@H](CCCNC(=N)N)NC(=O)[C@H](CCC(N)=O)NC(=O)[C@@H](NC(=O)[C@H](C)NC(=O)[C@@H]1CSSC[C@H](NC(=O)[C@@H](N)CCCCNC(=O)COCCOCCNC(=O)CC[C@H](NC(=O)CCCCCCCCCCCCCCCCCCC(=O)O)C(=O)O)C(=O)N[C@@H](CC(N)=O)C(=O)N[C@@H]([C@@H](C)O)C(=O)N[C@@H](C)C(=O)N[C@@H]([C@@H](C)O)C(=O)N1)[C@@H](C)O)C(=O)N1CCC[C@H]1C(=O)N[C@@H](CO)C(=O)N1CCC[C@H]1C(=O)N[C@H](C(=O)N1CCC[C@H]1C(=O)N[C@H](C(=O)NCC(=O)N[C@@H](CO)C(=O)N[C@@H](CC(N)=O)C(=O)N[C@H](C(=O)N[C@@H](Cc1ccc(O)cc1)C(N)=O)[C@@H](C)O)C(C)C)[C@@H](C)O [Example 54] (H-K([AEEA-γGlu-C20 diacid])CNTATCATQRLANFLRHSSPNFGAIPSPTPVGSNTY-NH2; disulfide 2-7; N-terminus assumed) | 146.1 | 146.1 | 146.1 | 146.1 | 146.1 | 146.1 | 146.1 | ≥ 200 | ≥ 200 | ≥ 200 | ≥ 200 | ≥ 200 | ≥ 200 | ≥ 200 | 9.6 | – | 9.6 | ≥ 200 | IC50 ([1]; Table 4, read-out: hAmylin-R bind IC50): 0.03 nM; EC50 ([3]; human amylin receptor functional potency, assay (II), read-out: hAmylin-R funct. EC50): 0.103 nM |
| CC[C@H](C)[C@H](NC(=O)[C@H](C)NC(=O)CNC(=O)[C@H](Cc1ccccc1)NC(=O)[C@H](CC(N)=O)NC(=O)[C@@H]1CCCN1C(=O)[C@H](CO)NC(=O)[C@H](CO)NC(=O)[C@H](Cc1c[nH]cn1)NC(=O)[C@H](CCCNC(=N)N)NC(=O)[C@H](CC(C)C)NC(=O)[C@H](Cc1ccccc1)NC(=O)[C@H](CC(N)=O)NC(=O)[C@H](C)NC(=O)[C@H](CC(C)C)NC(=O)[C@H](CCCNC(=N)N)NC(=O)[C@H](CCC(N)=O)NC(=O)[C@@H](NC(=O)[C@H](C)NC(=O)[C@@H]1CSSC[C@H](NC(=O)[C@H](CCCNC(=N)N)NC(=O)CNC(=O)CC[C@H](NC(=O)CCCCCCCCCCCCCCCCCCC(=O)O)C(=O)O)C(=O)N[C@@H](CC(N)=O)C(=O)N[C@@H]([C@@H](C)O)C(=O)N[C@@H](C)C(=O)N[C@@H]([C@@H](C)O)C(=O)N1)[C@@H](C)O)C(=O)N1CCC[C@H]1C(=O)N[C@@H](CO)C(=O)N[C@@H](CO)C(=O)N[C@H](C(=O)N[C@@H](CC(N)=O)C(=O)N[C@H](C(=O)NCC(=O)N[C@@H](CO)C(=O)N[C@@H](CC(N)=O)C(=O)N[C@H](C(=O)N[C@@H](Cc1ccc(O)cc1)C(N)=O)[C@@H](C)O)C(C)C)[C@@H](C)O [Example 46] ({C20 diacid-γGlu}-GRCNTATCATQRLANFLRHSSPNFGAIPSSTNVGSNTY-NH2; disulfide 3-8 (inferred)) | 48.9 | 48.9 | 48.9 | 48.9 | 48.9 | 48.9 | 48.9 | ≥ 200 | 106 (≈ 473 µg/mL) | ≥ 200 | 186 (≈ 831 µg/mL) | 145 (≈ 648 µg/mL) | ≥ 200 | ≥ 200 | 10.2 | 10.2 | 10.2 | ≥ 200 | – |
